From patent US20230085362A1, “PYRIMIDINE COMPOUNDS AND USE THEREOF” (National Health Research Institutes, priority 2021, published 2023)
Read-outs that look alike come from different tables or passages of the source.

Test system: Primary DRG cells
Assay: Neurite outgrowth assay (group A), paclitaxel-induced neurotoxicity
Format: cell-based, C57BL/6 J mice
Conditions: for neuroprotection against paclitaxel-induced neurotoxicity: 1 µM compound; for activity at 1 µM: Mus musculus, read-out: Neurite outgrowth (%); for Neurite outgrowth (%) A-B (extent of protection): difference between compound 1 µM + paclitaxel 0.05 µM and paclitaxel 0.05 µM alone
Experimental: Compounds of this invention were evaluated using the neurite outgrowth assay as described in Chen et al., Scientific Reports, 7, 45366, DOI: 10.1038/srep45366 (2017).
Cell culture. For primary culture, dorsal root ganglia (“DRG”) were removed from 7-weeks-old C57BL/6 J mice and digested with 0.1% collagenase (Sigma-Aldrich, St. Louis, MO) for 1 hour, followed by 0.25% trypsin treatment for 25 minutes. The dissociated neuron cultures were plated at a density of 2.5×10^4 cells per well in a 96 well optics plates (CLS3614; Sigma-Aldrich) precoated with 1 mg/mL poly-D-lysine (A-003-M; Sigma-Aldrich) for 3 hours. Primary DRG cells were grown in DMEM-F12 (11320033; Gibco®, ThermoFisher Scientific, Waltham, MA) supplemented with 10% fetal bovine serum (FBS, 26140079; Gibco®, ThermoFisher). These cells were maintained at 37° C. in an environment containing 5% CO2.
Neurite outgrowth assay (group A). Primary DRG cells were incubated with one of the Example 2 compounds at 1 µM for 24 hours, and then treated with 0.05 µM paclitaxel for another 24 hours. After the paclitaxel treatment, the primary DRG cells were washed by PBS and then fixed with 4% paraformaldehyde (PFA, P6148; Sigma-Aldrich) for 15 minutes. The DRG cells thus fixed were permeabilized by 0.05% Triton X-100 in PBS for 20 minutes and blocked with 3% bovine serum albumin (BSA; Sigma-Aldrich, USA) at room temperature for 1 hour. Subsequently, DRG cells were stained with rabbit anti-β III tubulin (1:600; Cell Signaling, USA) and mouse anti-NeuN monoclonal antibody (1:400; Millipore, USA) overnight at 4° C. The samples were then washed by PBS and reacted with secondary antibodies (Alexa-488 and Alexa-594 1:600; Invitrogen, CA) at room temperature for 1 hour. For image acquisition and analysis of DRG neurite outgrowth, images of stained cells were automatically acquired using 10X objective by Image Xpress Micro wide field fluorescent microscope (Molecular Devices, USA). A control was obtained following the same procedure except that the DRG cells were not treated with a compound or paclitaxel. Neurite outgrowth was measured as a percentage of outgrowth as compared to the control.
The difference between A and B indicates an extent of protection provided by the compound.

[1] = DRG cells, 1 µM compound 24 h then 0.05 µM paclitaxel 24 h, % of untreated control

SMILES | neuroprotection against paclitaxel-induced neurotoxicity (0.05 µM paclitaxel) | activity at 1 µM [1] | Neurite outgrowth (%) A-B (extent of protection) | activity at 1 µM (24 h) | neurotoxicity to DRG neurite outgrowth (0.05 µM paclitaxel 24 h) | inhibition of DRG neurite outgrowth (0.05 µM paclitaxel, across experiments of Table 1)
CC(C)NCCCn1cc(CNc2nc(NC3CCNCC3)cc(N3CCOCC3)n2)nn1 [Compound 18] | neuroprotection was provided | 50% | 3% | – | – | –
O=P(O)(O)CCN1CCC(Nc2cc(N3CCOCC3)nc(NCc3cn(CCCCO)nn3)n2)CC1 [Compound 117] | neuroprotection was provided | 58% | 11% | – | – | –
COC(=O)CCOCCCn1cc(CNc2nc(NC3CCN(Cc4cccc(C(=O)OC)c4)CC3)cc(N3CCOCC3)n2)nn1 [Compound 68] | neuroprotection was provided | – | 1% | 41% | – | –
CN1CCN(c2cc(NCc3cccnc3)nc(NCc3cn(CCCO)nn3)n2)CC1 [Compound 42] | neuroprotection was provided | 34% | 3% | – | – | –
COC(=O)CCOCCCn1cc(CNc2nc(NC3CCN(Cc4ccc5ccccc5c4)CC3)cc(N3CCOCC3)n2)nn1 [Compound 75] | neuroprotection was provided | – | – | – | – | –
COC(=O)CCCCC(=O)N1CCC(Nc2cc(N3CCOCC3)nc(NCc3cn(CCCOCCC(=O)OC)nn3)n2)CC1 [Compound 73] | neuroprotection was provided | 45% | 3% | – | – | –
COC(=O)c1cccc(CNCCCn2cc(CNc3nc(NC4CCN(Cc5ccccc5)CC4)cc(N4CCOCC4)n3)nn2)c1 [Compound 21] | neuroprotection was provided | 45% | 3% | – | – | –
O=P(O)(O)CCN1CCC(Nc2cc(N3CCS(=O)(=O)CC3)nc(NCc3cn(CCCO)nn3)n2)CC1 [Compound 143] | neuroprotection was provided | 57% | 7% | – | – | –
COC(=O)CCN1CCC(Nc2cc(N3CCOCC3)nc(NCc3cn(CCCO)nn3)n2)CC1 [Compound 48] | neuroprotection was provided | 58% | 11% | – | – | –
CC(O)Cn1cc(CNc2nc(NC3CCNCC3)cc(N3CCOCC3)n2)nn1 (stereo not shown) [Compound 53] | neuroprotection was provided | 47% | 2% | – | – | –
O=C(O)CCN1CCC(Nc2cc(N3CCOCC3)nc(NCc3cn(CC(=O)O)nn3)n2)CC1 [Compound 6] | neuroprotection was provided | – | 3% | 46% | – | –
CC(=O)O[C@H]1C(=O)[C@@]2(C)[C@H]([C@H](OC(=O)c3ccccc3)[C@]3(O)C[C@H](OC(=O)[C@H](O)[C@@H](NC(=O)c4ccccc4)c4ccccc4)C(C)=C1C3(C)C)[C@]1(OC(C)=O)CO[C@@H]1C[C@@H]2O [paclitaxel, reference compound] | – | – | – | – | inhibiting neurite outgrowth | 50%-69
O=P(O)(O)CCN1CCC(Nc2cc(N3CCSCC3)nc(NCc3cn(CCCO)nn3)n2)CC1 [Compound 140] | neuroprotection was provided | 54% | 4% | – | – | –
CCOC(=O)CNCCC(=O)N1CCC(Nc2cc(N3CCOCC3)nc(NCc3cn(CCCOCCC(=O)OC)nn3)n2)CC1 [Compound 74] | neuroprotection was provided | 45% | 3% | – | – | –
O=P(O)(O)CCN1CCC(Nc2cc(N3CCOCC3)nc(NCc3cn(CCO)nn3)n2)CC1 [Compound 114] | neuroprotection was provided | 55% | 8% | – | – | –
OCC(CO)Cn1cc(CNc2nc(NC3CCN(Cc4ccccc4)CC3)cc(N3CCOCC3)n2)nn1 [Compound 81] | neuroprotection was provided | 52% | 2% | – | – | –
CC(C)(O)CCn1cc(CNc2nc(NC3CCN(CCP(=O)(O)O)CC3)cc(N3CCOCC3)n2)nn1 [Compound 60] | neuroprotection was provided | 40% | 4% | – | – | –
O=P(O)(O)CCN1CCC(Nc2cc(N3CCCCC3)nc(NCc3cn(CCCO)nn3)n2)CC1 [Compound 135] | neuroprotection was provided | 56% | 6% | – | – | –
COC(=O)CCOCCCn1cc(CNc2nc(NC3CCN(Cc4ccccc4)CC3)cc(N3CCOCC3)n2)nn1 [Compound 65] | neuroprotection was provided | – | – | – | – | –
CN1CCN(c2cc(NC3CCNCC3)nc(NCc3cn(CCCO)nn3)n2)CC1 [Compound 41] | neuroprotection was provided | 34% | 3% | – | – | –
OCCCn1cc(CNc2cc(NC3CCNCC3)nc(NCc3cn(CCCO)nn3)n2)nn1 [Compound 108] | neuroprotection was provided | – | 9% | 41% | – | –
OCCCn1cc(CNc2nc(NC3CCNCC3)cc(N3CCCCC3)n2)nn1 [Compound 38] | neuroprotection was provided | 37% | 5% | – | – | –
CCCCC(=O)NCCCn1cc(CNc2nc(NC3CCN(CCP(=O)(O)O)CC3)cc(N3CCOCC3)n2)nn1 [Compound 28] | neuroprotection was provided | 53% | 3% | – | – | –
COCCCn1cc(CNc2nc(NC3CCNCC3)cc(N3CCOCC3)n2)nn1 [Compound 61] | neuroprotection was provided | 52% | 3% | – | – | –
NCCCn1cc(CNc2nc(NC3CCN(C(=O)CCNC(=O)C4(O)CC(O)C(O)C(O)C4)CC3)cc(N3CCOCC3)n2)nn1 (stereo not shown) [Compound 15] | neuroprotection was provided | 35% | 3% | – | – | –
CCn1nnc(CNc2nc(NC3CCN(CCC(=O)OC)CC3)cc(N3CCOCC3)n2)n1 [Compound 100] | neuroprotection was provided | 52% | 3% | – | – | –
COC(=O)CCOCCCn1cc(CNc2nc(NC3CCN(CCC(=O)OC)CC3)cc(N3CCOCC3)n2)nn1 [Compound 66] | neuroprotection was provided | 52% | 5% | – | – | –
COCCCn1cc(CNc2nc(NC3CCN(CCC(=O)OC)CC3)cc(N3CCOCC3)n2)nn1 [Compound 62] | neuroprotection was provided | 50% | 3% | – | – | –
COC(=O)CCOCCCn1cc(CNc2nc(NC3CCN(Cc4ccc(C#N)cc4)CC3)cc(N3CCOCC3)n2)nn1 [Compound 72] | neuroprotection was provided | 45% | 3% | – | – | –
